Test results as given in patent US11603391B2, “CATH2 derivatives” (Universiteit Utrecht Holding B.V., priority 2014, dated 2023).
No end group written: not given here.

How the values were obtained:
[1] = system: HD11 cells; assay: Neutralization of LPS-induced interleukin-1β transcription in HD11 cells (real time PCR); type: cell-based, chicken; details: 20 μM peptide pre-incubated with 50 ng/ml LPS; 4 h
Experimental: (§1) FIG. 11A-11B—Neutralization of lipopolysaccharide-induced interleukin-1β induction and nitric oxide production in HD11 cells by CMAP27 derived peptides. HD11 cells were seeded in 96 wells tissue culture treated plates (2×10^5 cell/mL) in RPMI-1640/10% FCS. Final concentrations of 50 ng/ml LPS were pre-incubated with or without 20 μM peptide for 30 min at 37° C. (5% CO2), applied to the cells and incubated for 4 h and 24 h. A) Transcription levels of interleukin-1 were determined by real time PCR (4 h only). B) Supernatants were collected for the determination of nitric oxide production (24 h incubations only) using the Griess assay. Significance levels: *P<0.05, **P<0.01, ***P<0.001. Data represents means±SEM from 3-4 independent experiments.
as §1, with “FIG. 12A-12B—Substitution” for “FIG. 11A-11B—Neutralization”, “of phenylalanine residues by tryptophan enhances the” for “of lipopolysaccharide-induced interleukin-1β induction and nitric oxide production”, “in vitro LPS neutralization capacity of” for “in HD11 cells by”, “h or” for “h and”
HD11 cells were seeded in 96 wells tissue culture treated plates (2×10^5 cell/mL) in RPMI-1640/10% FCS. Final concentrations of 50 ng/ml Salmonella minnesota LPS were pre-incubated with or without 20 μM peptide for 30 min at 37° C. (5% CO2), applied to the cells and incubated for 4 h and 24 h. A) Transcription levels of interleukin-1 were determined by real time PCR (4 h only). B) Supernatants were collected for the determination of nitric oxide production (24 h incubations only) using the Griess assay.

[2] = type: in vivo, chicken (Ross308 broilers); details: for bodyweight at 7 days post hatch (D7): 1 mg/kg in ovo at embryonic day 18, compared to vehicle treated birds; for HATCHABILITY: in vivo, 1 mg/kg
Experimental: FIG. 8A-8B—Bodyweights of Ross308 broilers assessed at hatch (D0) (FIG. 8A) and at 7 days after hatch (D7) (FIG. 8B). Birds were injected at embryonic day 18 with 1 mg/kg peptide or vehicle.
DCATH2 peptide and truncated analogs D-CMAP(1-21) and D-CMAP(4-21) were suspended in a Cholesterol/PBS formulation. Ross308 eggs were injected in the amnion fluid at 18 days of embryonic age with 100 μl of peptide containing suspension and returned to an egg incubator to hatch (˜ at 21 days embryonic age). Both control groups were injected in the amnion fluid with cholesterol/PBS formulation. The 1 mg/kg bodyweight dose of peptide was calculated based on an embryo body weight of 22 g. After hatch, all birds were weighed individually (D0) and transferred into isolator units per treatment (n=120/group). Birds were fed ad libitum and at 7 days after hatch (D7) bodyweights of individual birds were assessed.

[3] = system: avian pathogenic Salmonella enteritidis pt13a; assay: In ovo peptide treatment, subcutaneous Salmonella enteritidis challenge of broiler chicks; type: in vivo, chicken (Ross308 broilers)
Source text: FIG. 1A-1B—Differential and total counts of chicken peripheral blood leukocytes at 2 days p.i. after subcutaneous injection with 10^6 CFU of avian pathogenic Salmonella enteritis pt13a. A) total counts. B) differential counts.
FIG. 2A-2B—Mortality after subcutaneous injection with 10^6 CFU of avian pathogenic Salmonella enteritis pt13a. A) Survival curves of peptide treated and nontreated birds during 7 days post infection. B) Reduction of mortality (%) relative to untreated infected birds (+ control).
(§2) FIG. 3A-3B—Lesion scores determined at 7 days p.i. after subcutaneous injection with 10^6 CFU of avian pathogenic Salmonella enteritis pt13a. Left and right thoracic air sacs (respiratory tract), liver and heart (systemic infection) were separately evaluated using a scoring system: 0=no lesions, 1=mild lesions, 2=moderate lesions and 3=severe lesions. The mean lesion scores (MLS) were calculated as the sum of lesion scores per bird. A) The percentage of salmonellosis positive birds (MLS>1) and the reduction of salmonellosis positive birds relative to untreated infected birds. B) The average lesion scores relative to untreated infected birds.
DCATH2 peptide (the full D-amino acid analog of CMAP1-26) was suspended in a cholesterol/PBS formulation. Ross308 eggs were injected in the amnion fluid at 18 days of embryonic age with 100 μl of DCATH2 containing suspension and returned to an egg incubator to hatch (˜ at 21 days embryonic age). Both control groups were injected in the amnion fluid with cholesterol/PBS formulation. The 1 mg/kg bodyweight dose of peptide was calculated based on an embryo body weight of 22 g. After hatch, birds were transferred into 4 pens per treatment (n=40/group). Three days after hatch, all birds except the negative control were subcutaneously inoculated with an avian pathogenic Salmonella enteritidis pt13a strain at a dose of 5×10^6 CFU per bird. Two day after challenge, 12 birds per group were sacrificed and used to take samples for blood and organ analysis. Blood samples were taken to determine total leukocyte counts and leukocyte differentiation. During the 7 day challenge period mortality was registered per day. At the end of the challenge period at 7 days post infection, all remaining birds were sacrificed and in the left and right side thoracic air sacs, liver and heart were examined for lesion scores.

[4] = system: avian pathogenic Escherichia coli 506; assay: In ovo peptide treatment, intratracheal E. coli challenge of broiler chicks; type: in vivo, chicken (Ross308 broilers)
Source text: FIG. 4A-4B—Differential and total counts of chicken peripheral blood leukocytes at 2 days p.i. after intra-tracheal injection with 10^6 CFU of avian pathogenic E. coli 506. A) total counts. B) differential counts.
FIG. 5A-5B—Mortality after intra-tracheal injection with 10^6 CFU of avian pathogenic E. coli 506. A) Survival curves of peptide treated and nontreated birds during 7 days post infection. B) Reduction of mortality (%) relative to untreated infected birds.
as §2, with “6A-6B—Lesion” for “3A-3B—Lesion”, “intratracheal” for “subcutaneous”, “E. coli 506.” for “Salmonella enteritis pt13a.”, “colibacillosis” for “salmonellosis”
FIG. 7—Thoracic air sac counts 7 days after intratracheal injection with 10^6 CFU of avian pathogenic E. coli 506.
DCATH2 peptide was suspended in a Cholesterol/PBS formulation. Ross308 eggs were injected in the amnion fluid at 18 days of embryonic age with 100 μl of DCATH2 containing suspension and returned to an egg incubator to hatch (˜ at 21 days embryonic age). Both control groups were injected in the amnion fluid with cholesterol/PBS formulation. The 1 mg/kg bodyweight dose of DCATH2 peptide was calculated based on an embryo body weight of 22 g. After hatch, birds were transferred into isolator units per treatment (n=54/group). Three days after hatch, all birds except the negative control were intratracheally inoculated with an avian pathogenic Escherichia coli 506 strain (UU strain) at a dose of 1×10^6 CFU per bird. Two day after challenge, 13 birds per group were sacrificed and used to take samples for blood and organ analysis. Blood samples were taken to determine total leukocyte counts and leukocyte differentiation. During the 7 day challenge period mortality was registered per day. At the end of the challenge period at 7 days post infection, all remaining birds were sacrificed and in the left and right side thoracic air sacs, liver and heart were examined for lesion scores.

[5] = 7 days p.i., 1 mg/kg in ovo, surviving birds
[6] = 2 days p.i., 1 mg/kg in ovo, compared to untreated non-infected birds
[7] = 2 days p.i., compared to non-treated, non-infected animals

CMAP10-21-NH2: N-terminally truncated variant of CMAP1-21 (RRFRPKVTITIQ-NH2)
LPS-neutralizing activity (block of LPS-induced IL-1β expression, in words) [1]: lack LPS-neutralizing activity

Phe/Trp substituted analog of CMAP7-21-NH2: CMAP7-21-NH2 with phenylalanine substituted by tryptophan (RKIRRWRPKVTITIQ-NH2)
LPS-induced IL-1β expression blocked [1]: 86.3%

Phe/Trp substituted analog of CMAP10-21-NH2: CMAP10-21-NH2 with phenylalanine substituted by tryptophan (RRWRPKVTITIQ-NH2)
LPS-induced IL-1β expression blocked [1]: 71.9%

RFGRFLREIRRFRPKVTITIQ-NH2 [D-C(1-21)]
bodyweight at 7 days post hatch (D7) [2]: significant higher | HATCHABILITY [2]: 95%

RFGRFLREIRRFRPKVTITIQGSARF-NH2 [DCATH2]
delay of mortality ([3]; 1 mg/kg in ovo at embryonic day 18, Salmonella challenge 3 days after hatch): up to 3 days p.i. | absolute number of peripheral blood heterophils ([3]; 2 days p.i., 1 mg/kg in ovo, compared to non-infected birds): significantly higher | decrease of severity of lesions in salmonellosis positive birds ([3]; 7 days p.i., 1 mg/kg in ovo): 69% | reduction of mortality relative to untreated infected birds ([3]; 7 days p.i., 1 mg/kg in ovo): 50% | reduction of salmonellosis positive birds (mean lesion score>1) relative to untreated infected birds [3, 5]: 53% | absolute number of peripheral blood heterophils [4, 6]: significantly higher | absolute number of peripheral blood leukocytes [4, 6]: significantly higher | absolute number of lymphocytes [4, 7]: No differences | absolute number of monocytes [4, 7]: No differences | reduction of mortality relative to untreated infected birds ([4]; 7 days p.i., 1 mg/kg in ovo): 30% | reduction of severity of colibacillosis-related lesions ([4]; 7 days p.i., 1 mg/kg in ovo): 64% | reduction of colibacillosis positive birds (MLS>1) relative to untreated infected birds [4, 5]: 52% | reduction of air sac colonization by E. coli ([4]; 7 days p.i., 1 mg/kg in ovo, thoracic air sac counts): 93% | bodyweight at 7 days post hatch (D7) [2]: significant higher | HATCHABILITY [2]: 97%

RFGRFLRKIRRFRPKVTITIQGSARFG (CMAP27) [CATH2, in b91 probably DCATH2 is meant]
reduction of severity of colibacillosis-related lesions ([4]; 7 days p.i., 1 mg/kg in ovo): 64%

RFLREIRRFRPKVTITIQ-NH2 [D-C(4-21)]
bodyweight at 7 days post hatch (D7) [2]: significant higher | HATCHABILITY [2]: 94%
